This note sets out measurements from article PMC10442599 (RSC Advances, 2023).

Common to all, as to assay type: biochemical
For one test, the system named is BChE. The test is described as follows: Residual activity of BChE at 10 μM. The conditions noted are these: inhibitor 10 μM.
In a further test the target is T1, Recombinant human MAO-A (Homo sapiens, UniProt P21397).
T1 sequence (P21397 1-527): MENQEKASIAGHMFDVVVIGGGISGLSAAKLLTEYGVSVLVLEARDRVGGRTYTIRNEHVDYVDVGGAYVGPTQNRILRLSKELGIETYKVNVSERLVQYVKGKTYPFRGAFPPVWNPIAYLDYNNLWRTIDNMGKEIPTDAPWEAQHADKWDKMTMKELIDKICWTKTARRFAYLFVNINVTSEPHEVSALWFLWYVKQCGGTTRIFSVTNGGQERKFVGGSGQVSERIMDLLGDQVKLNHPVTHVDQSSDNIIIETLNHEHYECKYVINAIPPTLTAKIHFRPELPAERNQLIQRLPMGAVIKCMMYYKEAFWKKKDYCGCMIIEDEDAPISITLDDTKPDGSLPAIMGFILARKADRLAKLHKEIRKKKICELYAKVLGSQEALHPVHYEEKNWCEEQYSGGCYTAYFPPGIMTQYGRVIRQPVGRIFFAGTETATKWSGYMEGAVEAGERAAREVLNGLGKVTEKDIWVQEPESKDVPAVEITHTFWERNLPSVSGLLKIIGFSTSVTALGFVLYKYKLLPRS
Put plainly: Inhibition of MAO-A. The note with it: for remaining activity at 10 µM: read-out: Residual activities at 10 μM (%) MAO-A.

The target of test [1] is T2, MAO-B (Homo sapiens, UniProt P27338).
T2 sequence (P27338 1-520): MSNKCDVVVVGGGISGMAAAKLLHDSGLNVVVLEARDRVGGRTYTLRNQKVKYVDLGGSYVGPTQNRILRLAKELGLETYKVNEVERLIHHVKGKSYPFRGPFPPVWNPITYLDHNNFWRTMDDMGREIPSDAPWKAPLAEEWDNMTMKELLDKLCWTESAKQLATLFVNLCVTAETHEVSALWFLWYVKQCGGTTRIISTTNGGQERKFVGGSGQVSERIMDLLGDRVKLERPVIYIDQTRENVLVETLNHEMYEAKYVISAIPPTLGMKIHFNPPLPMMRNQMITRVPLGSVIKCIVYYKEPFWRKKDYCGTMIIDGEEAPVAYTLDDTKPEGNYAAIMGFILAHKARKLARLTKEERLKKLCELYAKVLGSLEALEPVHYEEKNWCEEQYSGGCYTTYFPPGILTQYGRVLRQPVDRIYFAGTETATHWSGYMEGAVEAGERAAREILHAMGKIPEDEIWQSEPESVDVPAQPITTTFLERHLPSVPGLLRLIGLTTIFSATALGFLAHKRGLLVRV
The test is described as follows: Inhibition of MAO-B. The conditions noted are these: for SI (MAO), selectivity index = IC50 (MAO-A)/IC50(MAO-B): MAO-B over MAO-A; for remaining activity at 10 µM: read-out: Residual activities at 10 μM (%) MAO-B.

A further test relates to AChE. Put plainly: Residual activity of AChE at 10 μM. The conditions noted are these: inhibitor 10 μM.
The target in test [2] is T2, MAO-B. Put plainly: Reversibility of MAO-B inhibition by dialysis. The conditions noted are these: 2-times IC50.
In test [3] the target is T2, MAO-B. The test is described as follows: Enzyme kinetics of MAO-B inhibition.

Molecules are shown by their SMILES. Entries after “also recorded” stand apart in the source; their conditions may differ.

Consider `O=C1c2ccccc2N(Cc2ccccc2Br)C12CCCC2` [Compound 11k], for which, in the test on BChE, the “Residual activities at 10 μM (%) BChE” value is 51.41 ± 0.53%. At Recombinant human MAO-A, the IC50 was 9.01 ± 0.36 µM and the remaining activity at 10 µM was found to be 41.9 ± 4.56%. In addition, at MAO-B [1], the IC50 amounted to 14.3 ± 1.45 µM; the “SI (MAO), selectivity index = IC50 (MAO-A)/IC50(MAO-B)” value (“SI (MAO), selectivity index = IC50” for short) worked out at 0.63; the remaining activity at 10 µM is 60.2 ± 1.44%. For the same compound, the “Residual activities at 10 μM (%) AChE” value with AChE is listed as 68.03 ± 3.68%.
As for `Cc1ccc2c(c1)C(=O)C1(CCCC1)N2Cc1ccccc1` [Compound 11b], the “Residual activities at 10 μM (%) BChE” value with BChE is on record as 65.10 ± 0.74%. The IC50 is more than 40 µM at Recombinant human MAO-A and 5.99 ± 0.36 µM against MAO-B [1]. Besides, the figures for the remaining activity at 10 µM at Recombinant human MAO-A and at MAO-B [1] were 79.6 ± 5.03% and 26.1 ± 2.75%, respectively. Moreover, the “Residual activities at 10 μM (%) AChE” value in the test with AChE is on record as 80.92 ± 5.07%.
`O=C1c2cc(Br)ccc2N(Cc2ccccc2)C12CCCC2` [Compound 11d]: the “Residual activities at 10 μM (%) BChE” value in the test on BChE worked out at 71.19 ± 4.17%. On Recombinant human MAO-A, the half-inhibitory concentration (IC50) was determined as 14 ± 0.96 µM and the remaining activity at 10 µM turned out to be 62 ± 0.94%. Also, on MAO-B [1], the midpoint of inhibition, the IC50, lay at 2.81 ± 0.71 µM; the “SI (MAO), selectivity index = IC50” value is 5.00; the remaining activity at 10 µM is -16.2 ± 2.34%. The “Residual activities at 10 μM (%) AChE” value with AChE is 81.90 ± 1.22%.
As for `Cc1ccc2c(c1)C(=O)C1(CCCC1)N2` [Compound 10b], the “Residual activities at 10 μM (%) BChE” value in the test with BChE was found to be 73.82 ± 7.10%. Further, on Recombinant human MAO-A, the IC50 was more than 40 µM and the remaining activity at 10 µM is 72.2 ± 3.58%. Moreover, on MAO-B [1], the IC50 is more than 40 µM and the remaining activity at 10 µM amounted to 82.2 ± 9.06%. Besides, the “Residual activities at 10 μM (%) AChE” value in the test on AChE was 83.39 ± 1.93%.
For `O=C1c2ccccc2N(Cc2ccc(Br)cc2)C12CCCC2` [Compound 11f], in the test with BChE, the “Residual activities at 10 μM (%) BChE” value amounted to 72.06 ± 6.88%. Besides, on MAO-B [2], the “Reversibility of MAO-B inhibition” value is “reversible”. On Recombinant human MAO-A, the IC50 turned out to be 17.2 ± 1.14 µM and the remaining activity at 10 µM turned out to be 67.9 ± 6.53%. This compound also gave a Ki at MAO-B [3] of 0.51 ± 0.023 µM. Besides, the “Type of MAO-B inhibition” value on MAO-B [3] (Lineweaver–Burk plot) is “competitive inhibitor; also recorded: competitive inhibition”. In addition, on MAO-B [1], the IC50 was found to be 1.44 ± 0.21 µM; the “SI (MAO), selectivity index = IC50” value is reported as 11.91; the remaining activity at 10 µM amounted to 5.22 ± 1.06%. In the test with AChE, the “Residual activities at 10 μM (%) AChE” value is on record as 68.95 ± 0.39%.
With `O=C1c2ccccc2NC12CCCC2` [Compound 10a], in the test with BChE, the “Residual activities at 10 μM (%) BChE” value is 73.90 ± 4.90%. Besides, at Recombinant human MAO-A, the 50% inhibitory concentration (IC50) came out at 20.8 ± 2.89 µM and the remaining activity at 10 µM was 66.9 ± 2.47%. At MAO-B [1], the concentration for half-maximal inhibition (IC50) came to 15.6 ± 2.33 µM; the “SI (MAO), selectivity index = IC50” value was found to be 1.34; the remaining activity at 10 µM was 57 ± 2.99%. Further, the “Residual activities at 10 μM (%) AChE” value in the test with AChE came to 76.29 ± 6.64%.
